Results: patent US10150766B2, “P2X7 modulators” (Jansssen Pharmaceutica NV, priority 2014, dated 2018)
Values joined by “and” are separate entries in the source; they are usually repeats but may differ in a detail not shown here. Identical values can stand only once. Like-named read-outs stand apart in the source and are kept apart here.

What was measured:
P2X7 [1] = biological target: T1, P2X7 (Homo sapiens (Human), UniProt Q99572); assay: P2X7 antagonism in human peripheral blood mononuclear cells (PBMCs), IL-1β release (LPS + Bz-ATP, ELISA); type: cell-based; conditions: P2X7, 10 μM test compound, LPS 30 ng/ml + Bz-ATP 0.5 mM, read-out: PBMC @10 μM (% control)
Description: (§1) P2X7 Antagonism in Human Peripheral Blood Mononuclear Cells (PBMCs) and Human Whole Blood.
(§2) Human blood was collected using a blood donor program. PBMCs were isolated from blood using a Ficoll density gradient technique. Briefly, blood was laid on Ficoll solution and centrifuged at ROOM TEMPERATURE for 20 minutes at 2000 rpm. The buffy layer (between red blood cells and plasma) was carefully collected by aspiration, washed with PBS and centrifuged again at 1500 rpm for 15 minutes. The resulting cell pellet was washed and plated on 96 well-plates for experiments. For the Human Whole Blood experiments, 150 μl of human blood was plated on 96 well-plates. Lipopolysaccharide (LPS) (30 ng/ml) was added to each well and incubated for 1 hour. Test compounds were then added and incubated for 30 minutes. The P2X7 agonist, 2′(3′)-O-(4-benzoylbenzoyl) adenosine 5′-triphosphate (Bz-ATP) was then added at a final concentration of 0.5 mM (PBMC) or 1 mM (blood). Cells were incubated for an additional 1.5 hours. At that point, supernatant was collected and stored for IL-1β assay using manufacturer's protocol for enzyme-linked immunosorbant assay (ELISA). Data was expressed as percent control, where control is defined as the difference in IL-1β release in LPS+Bz-ATP samples and LPS only samples. Data was plotted as response (% control) versus concentration to generate IC50 values. […] Data are analyzed and graphed on Graphpad Prism 5. For analysis, each concentration point is averaged from triplicate values and the averaged values are plotted on Graphpad Prism. The IC50 for each compound is then uploaded into 3DX.

rat P2X7 = rat P2X7 (Rattus norvegicus (Rat), UniProt Q64663); assay: P2X7 antagonism in recombinant rat P2X7 cells (column headed P2X7 Rat IC50); type: binding
Description: The in vitro affinity of the compounds of the invention for the rat and human P2X7 receptor was determined using a human peripheral blood mononuclear cells (PBMCs), a human whole blood assay, a Ca^2+ flux and radioligand binding assay in recombinant human P2X7 cells and recombinant rat P2X7 cells. […] The data represented in Tables 2 may represent a value from a single determination or when the experiment was run more than once, the data represents the average from between 2-12 runs.
P2X7 Antagonism in Recombinant Human P2X7 Cells or Recombinant Rat P2X7 Cells: […]

P2X7 [2] = biological target: T1, P2X7; assay: P2X7 antagonism in human whole blood, IL-1β release (LPS + Bz-ATP, ELISA); type: cell-based; conditions: LPS 30 ng/ml + Bz-ATP 1 mM
Description: as §1, §2

T1 sequence (Q99572 whole entry): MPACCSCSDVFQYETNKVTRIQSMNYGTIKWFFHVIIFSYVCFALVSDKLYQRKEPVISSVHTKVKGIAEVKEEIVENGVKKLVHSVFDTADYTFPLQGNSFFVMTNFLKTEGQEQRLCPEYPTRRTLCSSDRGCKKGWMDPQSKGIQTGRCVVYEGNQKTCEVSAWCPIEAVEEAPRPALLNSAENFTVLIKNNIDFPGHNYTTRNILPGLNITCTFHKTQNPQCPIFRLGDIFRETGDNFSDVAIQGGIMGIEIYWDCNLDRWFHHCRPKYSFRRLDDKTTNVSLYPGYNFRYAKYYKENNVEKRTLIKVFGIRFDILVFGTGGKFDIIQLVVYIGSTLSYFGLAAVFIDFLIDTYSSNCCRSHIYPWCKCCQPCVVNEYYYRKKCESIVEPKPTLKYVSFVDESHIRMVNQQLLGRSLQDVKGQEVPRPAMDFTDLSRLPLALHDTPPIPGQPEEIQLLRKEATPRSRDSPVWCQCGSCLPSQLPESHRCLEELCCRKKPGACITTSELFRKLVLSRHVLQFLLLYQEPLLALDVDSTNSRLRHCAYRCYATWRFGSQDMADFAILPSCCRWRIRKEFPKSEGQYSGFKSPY
Chain of rat P2X7 (Q64663 whole entry): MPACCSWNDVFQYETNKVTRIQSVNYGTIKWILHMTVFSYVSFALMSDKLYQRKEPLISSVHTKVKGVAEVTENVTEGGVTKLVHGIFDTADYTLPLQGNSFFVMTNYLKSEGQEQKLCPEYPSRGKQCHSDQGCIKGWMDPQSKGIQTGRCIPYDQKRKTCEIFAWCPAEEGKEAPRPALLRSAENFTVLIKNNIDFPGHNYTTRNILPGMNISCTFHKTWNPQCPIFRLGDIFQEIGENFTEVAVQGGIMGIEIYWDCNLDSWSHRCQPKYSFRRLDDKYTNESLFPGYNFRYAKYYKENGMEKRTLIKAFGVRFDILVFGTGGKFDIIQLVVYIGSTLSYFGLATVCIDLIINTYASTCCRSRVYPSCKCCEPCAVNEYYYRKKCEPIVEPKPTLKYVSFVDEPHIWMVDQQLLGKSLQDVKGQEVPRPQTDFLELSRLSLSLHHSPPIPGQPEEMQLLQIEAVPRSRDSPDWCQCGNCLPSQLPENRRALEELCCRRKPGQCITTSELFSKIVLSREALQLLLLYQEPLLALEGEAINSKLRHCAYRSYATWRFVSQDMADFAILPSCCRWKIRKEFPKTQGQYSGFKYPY

Molecule Cc1nc(-c2ccc(F)cc2)c2c(n1)[C@@H]1CCC[C@H](C2)N1C(=O)c1ccc(F)cc1Cl [Example 16, (2-chloro-4-fluorophenyl)((6R,10S)-4-(4-fluorophenyl)-2-methyl-5,6,7,8,9,10-hexahydro-6,10-epiminocycloocta[d]pyrimidin-11-yl)methanone] has a remaining activity at 10 µM (P2X7 [1]) of 84.8%, an IC50 (rat P2X7) greater than 10000 nM and an IC50 (P2X7 [2]; Human Whole Blood IC50 (μM)) of 7.38 µM.

Work on Cc1nc(-c2ccc(F)cc2)c2c(n1)[C@H]1CCC[C@@H](C2)N1C(=O)c1ccc(Cl)c(F)c1Cl [Example 54, (2,4-dichloro-3-fluorophenyl)((6S,10R)-4-(4-fluorophenyl)-2-methyl-5,6,7,8,9,10-hexahydro-6,10-epiminocycloocta[d]pyrimidin-11-yl)methanone] yielded a remaining activity at 10 µM (P2X7 [1]) of 9.3% and an IC50 (rat P2X7) of 372 nM.

In the case of Cc1nc(-c2cnn(C)c2)c2c(n1)[C@H]1CCC[C@@H](C2)N1C(=O)c1cccc(Cl)c1Cl [Example 31, (2,3-dichlorophenyl)((6S,10R)-2-methyl-4-(1-methyl-1H-pyrazol-4-yl)-5,6,7,8,9,10-hexahydro-6,10-epiminocycloocta[d]pyrimidin-11-yl)methanone], the remaining activity at 10 µM (P2X7 [1]) is reported as -0.9%, the IC50 (rat P2X7) is reported as greater than 10000 nM and the IC50 (P2X7 [2]; Human Whole Blood IC50 (μM)) is reported as 2.67 µM.

Molecule Cc1nc(-c2cnn(C)c2)c2c(n1)[C@H]1CCC[C@@H](C2)N1C(=O)c1ccnc(C(F)(F)F)c1F [Example 37, (3-fluoro-2-(trifluoromethyl)pyridin-4-yl)((6S,10R)-2-methyl-4-(1-methyl-1H-pyrazol-4-yl)-5,6,7,8,9,10-hexahydro-6,10-epiminocycloocta[d]pyrimidin-11-yl)methanone] has a remaining activity at 10 µM (P2X7 [1]) of 13.3%, an IC50 (rat P2X7) greater than 10000 nM and an IC50 (P2X7 [2]; read-out: Human Whole Blood IC50) of 20.9 µM.

For Cc1nc(-c2ccn[nH]2)c2c(n1)[C@@H]1CCC[C@H](C2)N1C(=O)c1cccc(C(F)(F)F)c1Cl [Example 3, (2-chloro-3-(trifluoromethyl)phenyl)((6R,10S)-2-methyl-4-(1H-pyrazol-5-yl)-5,6,7,8,9,10-hexahydro-6,10-epiminocycloocta[d]pyrimidin-11-yl)methanone], the remaining activity at 10 µM (P2X7 [1]) was 22% and the IC50 (rat P2X7) was 811 nM.

In the case of Cc1nc(-c2ccn[nH]2)c2c(n1)C1CCCC(C2)N1C(=O)c1cccc(C(F)(F)F)c1Cl (centres unmarked) [Example 2, (2-chloro-3-(trifluoromethyl)phenyl)(2-methyl-4-(1H-pyrazol-5-yl)-5,6,7,8,9,10-hexahydro-6,10-epiminocycloocta[d]pyrimidin-11-yl)methanone], the remaining activity at 10 µM (P2X7 [1]) is reported as 1.1%.

In the case of Cc1nc(-c2ccccn2)c2c(n1)[C@H]1CCC[C@@H](C2)N1C(=O)c1ccnc(C(F)(F)F)c1Cl [Example 61, (3-chloro-2-(trifluoromethyl)pyridin-4-yl)((6S,10R)-2-methyl-4-(pyridin-2-yl)-5,6,7,8,9,10-hexahydro-6,10-epiminocycloocta[d]pyrimidin-11-yl)methanone], the remaining activity at 10 µM (P2X7 [1]) is reported as 0.4% and the IC50 (rat P2X7) is reported as 46 nM.

Cc1nc(-c2cnccn2)c2c(n1)[C@H]1CCC[C@@H](C2)N1C(=O)c1ccnc(C(F)(F)F)c1Cl [Example 49, (3-chloro-2-(trifluoromethyl)pyridin-4-yl)((6S,10R)-2-methyl-4-(pyrazin-2-yl)-5,6,7,8,9,10-hexahydro-6,10-epiminocycloocta[d]pyrimidin-11-yl)methanone] gave a remaining activity at 10 µM (P2X7 [1]) of -1.9% and an IC50 (rat P2X7) of 139 nM.

Cc1nc(-c2ccn[nH]2)c2c(n1)[C@H]1CCC[C@@H](C2)N1C(=O)c1cccc(C(F)(F)F)c1Cl [Example 19, (2-chloro-3-(trifluoromethyl)phenyl)((6S,10R)-2-methyl-4-(1H-pyrazol-5-yl)-5,6,7,8,9,10-hexahydro-6,10-epiminocycloocta[d]pyrimidin-11-yl)methanone] showed a remaining activity at 10 µM (P2X7 [1]) of -3% and an IC50 (rat P2X7) of 12.2 nM.

Work on Cc1nc(-c2ccc(F)cc2)c2c(n1)[C@@H]1CCC[C@H](C2)N1C(=O)c1ccnc(C(F)(F)F)c1Cl [Example 18, (3-chloro-2-(trifluoromethyl)pyridin-4-yl)((6R,10S)-4-(4-fluorophenyl)-2-methyl-5,6,7,8,9,10-hexahydro-6,10-epiminocycloocta[d]pyrimidin-11-yl)methanone] yielded a remaining activity at 10 µM (P2X7 [1]) of 28.9% and an IC50 (rat P2X7) greater than 10000 nM.

Cc1nc(-c2ccc(F)cc2)c2c(n1)[C@H]1CCC[C@@H](C2)N1C(=O)c1ccnc(C(F)(F)F)c1Cl [Example 52, (3-chloro-2-(trifluoromethyl)pyridin-4-yl)((6S,10R)-4-(4-fluorophenyl)-2-methyl-5,6,7,8,9,10-hexahydro-6,10-epiminocycloocta[d]pyrimidin-11-yl)methanone] gave a remaining activity at 10 µM (P2X7 [1]) of -1.2% and an IC50 (rat P2X7) of 81.8 nM.

Cc1nc(-c2ccn[nH]2)c2c(n1)[C@@H]1CCC[C@H](C2)N1C(=O)c1ccc(Cl)cc1Cl [Example 5, (2,4-dichlorophenyl)((6R,10S)-2-methyl-4-(1H-pyrazol-5-yl)-5,6,7,8,9,10-hexahydro-6,10-epiminocycloocta[d]pyrimidin-11-yl)methanone] showed a remaining activity at 10 µM (P2X7 [1]) of 76.5% and an IC50 (P2X7 [2]; Human Whole Blood IC50 (μM)) of 2 µM.

In the case of Cc1nc(-c2ccn[nH]2)c2c(n1)[C@@H]1CCC[C@H](C2)N1C(=O)c1cccc(C(F)(F)F)c1F [Example 8, (2-fluoro-3-(trifluoromethyl)phenyl)((6R,10S)-2-methyl-4-(1H-pyrazol-5-yl)-5,6,7,8,9,10-hexahydro-6,10-epiminocycloocta[d]pyrimidin-11-yl)methanone], the remaining activity at 10 µM (P2X7 [1]) is reported as 31.9% and the IC50 (rat P2X7) is reported as 601 nM.

Work on Cc1nc(-c2ccc(F)cc2)c2c(n1)[C@@H]1CCC[C@H](C2)N1C(=O)c1ccc(F)c(Cl)c1Cl [Example 17, (2,3-dichloro-4-fluorophenyl)((6R,10S)-4-(4-fluorophenyl)-2-methyl-5,6,7,8,9,10-hexahydro-6,10-epiminocycloocta[d]pyrimidin-11-yl)methanone] yielded a remaining activity at 10 µM (P2X7 [1]) of 13.3% and an IC50 (P2X7 [2]; Human Whole Blood IC50 (μM)) of 2.02 µM.

Work on Cc1nc(-c2cnccn2)c2c(n1)[C@H]1CCC[C@@H](C2)N1C(=O)c1cccc(Cl)c1Cl [Example 48, (2,3-dichlorophenyl)((6S,10R)-2-methyl-4-(pyrazin-2-yl)-5,6,7,8,9,10-hexahydro-6,10-epiminocycloocta[d]pyrimidin-11-yl)methanone] yielded a remaining activity at 10 µM (P2X7 [1]) of -4.3% and an IC50 (rat P2X7) of 54.3 nM.

Cc1nc(-c2ncccn2)c2c(n1)[C@H]1CCC[C@@H](C2)N1C(=O)c1cccc(C(F)(F)F)c1C [Example 43, (2-methyl-3-(trifluoromethyl)phenyl)((6S,10R)-2-methyl-4-(pyrimidin-2-yl)-5,6,7,8,9,10-hexahydro-6,10-epiminocycloocta[d]pyrimidin-11-yl)methanone] was tested, and the remaining activity at 10 µM (P2X7 [1]) was 15% and the IC50 (rat P2X7) was 41.7 nM.

With Cc1nc(-c2ccn[nH]2)c2c(n1)[C@H]1CCC[C@@H](C2)N1C(=O)c1cccc(C(F)(F)F)c1F [Example 26, (2-fluoro-3-(trifluoromethyl)phenyl)((6S,10R)-2-methyl-4-(1H-pyrazol-5-yl)-5,6,7,8,9,10-hexahydro-6,10-epiminocycloocta[d]pyrimidin-11-yl)methanone] the remaining activity at 10 µM (P2X7 [1]) was -3.8% and the IC50 (rat P2X7) was 41.4 nM.

Cc1nc(-c2cnn(C)c2)c2c(n1)[C@H]1CCC[C@@H](C2)N1C(=O)c1ccc(Cl)cc1Cl [Example 40, (2,4-dichlorophenyl)((6S,10R)-2-methyl-4-(1-methyl-1H-pyrazol-4-yl)-5,6,7,8,9,10-hexahydro-6,10-epiminocycloocta[d]pyrimidin-11-yl)methanone] was tested, and the remaining activity at 10 µM (P2X7 [1]) was 76.2%.

With Cc1nc(-c2cnn(C)c2)c2c(n1)[C@H]1CCC[C@@H](C2)N1C(=O)c1ccc(F)cc1Cl [Example 36, (2-chloro-4-fluorophenyl)((6S,10R)-2-methyl-4-(1-methyl-1H-pyrazol-4-yl)-5,6,7,8,9,10-hexahydro-6,10-epiminocycloocta[d]pyrimidin-11-yl)methanone] the remaining activity at 10 µM (P2X7 [1]) was 73.8%.

Cc1nc(-c2cnn(C)c2)c2c(n1)[C@H]1CCC[C@@H](C2)N1C(=O)c1cccc(C(F)(F)F)c1Cl [Example 30, (2-chloro-3-(trifluoromethyl)phenyl)((6S,10R)-2-methyl-4-(1-methyl-1H-pyrazol-4-yl)-5,6,7,8,9,10-hexahydro-6,10-epiminocycloocta[d]pyrimidin-11-yl)methanone] gave a remaining activity at 10 µM (P2X7 [1]) of -3.7% and an IC50 (rat P2X7) greater than 10000 nM.

Cc1nc(-c2ccc(F)cc2)c2c(n1)[C@@H]1CCC[C@H](C2)N1C(=O)c1ccc(Cl)cc1Cl [Example 15, (2,4-dichlorophenyl)((6R,10S)-4-(4-fluorophenyl)-2-methyl-5,6,7,8,9,10-hexahydro-6,10-epiminocycloocta[d]pyrimidin-11-yl)methanone] was tested, and the IC50 (P2X7 [2]; Human Whole Blood IC50 (μM)) was 5.05 µM and 13.3 µM.
